Experimental data from US12447171B2 (CELGENE QUANTICEL RESEARCH, INC., priority 2019, dated 2025).

What was measured:
[1] = system: stearoyl-CoA desaturase (SCD); assay: SCD expression (RNAseq, real-time PCR) in MV4-11 cells; assay type: cell-based
Protocol: (§1) After treatment, cells were recovered, washed once in PBS, and flash frozen as cell pellets. Cell pellets were sent to Canopy Biosciences for RNA extraction and library preparation and sequencing. RNA was extracted using the Qiagen RNeasy Mini Kit according to manufacturer's instructions. A modified protocol was used to preserve miRNA species. Total RNA Seq libraries were prepared using 200 ng of total RNA and the NEBNext Ultra II Directional Library prep kit. rRNA depletion was performed using an RNase-H based method (New England Biolabs, Ipswich, MA). MCL1 RNA levels in other cell lines were quantified by RNASeq using standard methods.
(§2) Libraries were multiplexed and sequenced using Illumina HiSeq. All gene counts were then imported into the R/Bioconductor package EdgeR and TMM normalization size factors were calculated to adjust for samples for differences in library size. Ribosomal genes and genes not expressed in the smallest group size minus one samples greater than one count-per-million were excluded from further analysis. Differential expression analysis was then performed to analyze for differences between conditions and the results were filtered for only those genes with Benjamini-Hochberg false-discovery rate adjusted p-values less than or equal to 0.05. Global perturbations in known Gene Ontology (GO) terms and KEGG pathways were detected using the R/Bioconductor package GAGE to test for changes in expression of the reported log 2 fold-changes reported by Limma in each term versus the background log 2 fold-changes of all genes found outside the respective term. […]
At this time, cells were recovered and RNA was extracted using Qiagen RNeasy kit according to manufacturer's instructions. […] Validated Taqman probes and Taqman Fast Advanced Master Mix was used with Viia 7 Real-Time PCR System (Invitrogen/ThermoFisher Scientific, Waltham, MA) to quantify transcripts of ATF3, SCD, and 18S mRNA.

MV4-11 cells = assay: RNASeq analysis of MV4-11 cells; assay type: cell-based; conditions: MV4-11, 1 μM 5-azacytidine
Protocol: as §1
Libraries were multiplexed and sequenced using Illumina HiSeq. All gene counts were then imported into the R/Bioconductor package EdgeR and TMM normalization size factors were calculated to adjust for samples for differences in library size. Ribosomal genes and genes not expressed in the smallest group size minus one samples greater than one count-per-million were excluded from further analysis. Differential expression analysis was then performed to analyze for differences between conditions and the results were filtered for only those genes with Benjamini-Hochberg false-discovery rate adjusted p-values less than or equal to 0.05. Global perturbations in known Gene Ontology (GO) terms and KEGG pathways were detected using the R/Bioconductor package GAGE to test for changes in expression of the reported log 2 fold-changes reported by Limma in each term versus the background log 2 fold-changes of all genes found outside the respective term. The R/Bioconductor package heatmap and Pathview was used to display heatmaps or annotated KEGG graphs across groups of samples for each GO term or KEGG pathway (respectively) with a Benjamini-Hochberg false-discovery rate adjusted p-value less than or equal to 0.05. To find differentially expressed genes, the raw counts were variance stabilized with the R/Bioconductor package DESeq2.

MV4-11 xenograft models = assay: Disseminated MV4-11 xenograft survival study; assay type: in vivo; conditions: MV4-11, NCG mice, vehicle=29.5
Protocol: LEED models oral administration of AZA, while HELD models intravenous or subcutaneous administration of AZA.
On each day of dosing, an appropriate amount of gilteritinib was dissolved in 0.5% methylcellulose in DI water to yield a dosing solution at 0.4 mg/mL. Each week, an appropriate amount of venetoclax was dissolved in 10% ethanol:30% PEG400:60% phosal 50 propylene glycol to yield a dosing solution at 10 mg/mL. […] Each test mouse received 5×10^6 MOLM-13 cells or 10^7 MV4-11 cells (0.2 mL cell suspension) by tail vein injection. Dosing was initiated three days after tumor cell inoculation, which was designated as Day 1 of the study. […] […] Vehicle was administered both IP and PO. The dosing volume for all treatments was 10 mL/kg, scaled to the weight of each individual animal.
Animals were monitored individually for an endpoint of moribundity due to progression of the leukemia. Full hind limb paralysis, severe ocular proptosis, or moribundity was considered sufficient for euthanasia due to tumor progression. Moribund animals were defined as sick animals unable to reach food and water. These deaths were classified as death on survival study. The time to endpoint (TTE), in days, was recorded for each mouse that died of its disease or was euthanized due to extensive tumor progression. […] An animal classified as having died from treatment-related (TR) causes was assigned a TTE value equal to the day of death. An animal classified as having died from non-treatment-related (NTR) causes, or used for sampling before endpoint, was excluded from TTE calculations and all further analyses. The median TTE value was calculated for each group. The median TTE of treated mice was expressed as a percentage of the median TTE of the control mice (% T/C), and the increase in life span (ILS) was calculated as: ILS=% T/C−100%, where T=median TTE treated, and C=median TTE control. Thus, if T=C, ILS=0%.
Animals were weighed daily on Days 1-5, then twice per week until the completion of the study. […] Individual body weight loss was monitored as per protocol and any animal that exceeded the limits for acceptable body weight loss was euthanized. Group mean body weight loss also was monitored as per protocol. Dosing was suspended in any group that exceeded the limits for acceptable mean body weight loss. If mean body weight recovered, then dosing may be resumed in that group, but at a lower dosage or less frequent dosing schedule. […] Survival was analyzed by the Kaplan-Meier method, based on TTE values. The logrank (Mantel-Cox) and Gehan-Breslow-Wilcoxon tests determined the significance of the difference between the overall survival experiences (survival curves) of two groups, based on TTE values.

[2] = system: activating transcription factor 3 (ATF3); assay: ATF3 expression (RNAseq, real-time PCR) in MV4-11 cells; assay type: cell-based
Protocol: as §1
as §2, with “Differential expression analysis was then performed to analyze for differences between conditions and the results were filtered for only those genes with Benjamini-Hochberg false-discovery rate adjusted p-values less than or equal to 0.05.” left out

Structure (SMILES): Nc1ncn([C@@H]2O[C@H](CO)[C@@H](O)[C@H]2O)c(=O)n1 [5-azacytidine, 4-amino-1-B-D-ribofuranosyl-1,3,5-triazin-2(1H)-one]
- SCD expression (real-time PCR) ([1]; MV4-11, 3 μM 5-azacytidine): decreased rapidly within 24 hours
- SCD expression (real-time PCR) ([1]; MV4-11, low concentrations of 5-azacytidine, 24 hours): not affected
- SCD expression decrease ([1]; RNAseq, MV4-11, 1 μM, 48 hours): 2.5 fold
- Mean logFC, Kegg pathway Antigen processing and presentation (MV4-11 cells; 24 h): −3.39
- Mean logFC, Kegg pathway Biosynthesis of unsaturated fatty acids (MV4-11 cells; 24 h): −3.26
- Mean logFC, Kegg pathway Carbon metabolism (MV4-11 cells; 24 h): −3.35
- Mean logFC, Kegg pathway Cardiac muscle contraction (MV4-11 cells; 24 h): −2.61
- Mean logFC, Kegg pathway Cell cycle (MV4-11 cells; 24 h): −5.75
- Mean logFC, Kegg pathway Cellular senescence (MV4-11 cells; 24 h): −2.69
- Mean logFC, Kegg pathway DNA replication (MV4-11 cells; 24 h): −4.45
- Mean logFC, Kegg pathway Fatty acid elongation (MV4-11 cells; 24 h): −2.87
- Mean logFC, Kegg pathway Fatty acid metabolism (MV4-11 cells; 24 h): −3.43
- Mean logFC, Kegg pathway Lysasome (MV4-11 cells; 24 h): −2.82
- Mean logFC, Kegg pathway Metabolic pathways (MV4-11 cells; 24 h): −5.79
- Mean logFC, Kegg pathway Mismatch repair (MV4-11 cells; 24 h): −2.98
- Mean logFC, Kegg pathway Necroptosis (MV4-11 cells; 24 h): −3.78
- Mean logFC, Kegg pathway Oxidative phosphorylation (MV4-11 cells; 24 h): −7.32
- Mean logFC, Kegg pathway Phagosome (MV4-11 cells; 24 h): −4.13
- Mean logFC, Kegg pathway Proteasome (MV4-11 cells; 24 h): −4.41
- Mean logFC, Kegg pathway Protein export (MV4-11 cells; 24 h): −3.19
- Mean logFC, Kegg pathway Protein processing in endoplasmic reticulation (MV4-11 cells; 24 h): −4.96
- Mean logFC, Kegg pathway RNA transport (MV4-11 cells; 24 h): −3.08
- Mean logFC, Kegg pathway Regulation of actin cytoskeleton (MV4-11 cells; 24 h): −2.46
- Mean logFC, Kegg pathway Ribosome (MV4-11 cells; 24 h): −10.50
- Mean logFC, Kegg pathway Spliceasome (MV4-11 cells; 24 h): −4.10
- Mean logFC, Kegg pathway Taste transduction (MV4-11 cells; 24 h): −2.44
- Mean logFC, Kegg pathway Terpenoid backbone biosynthesis (MV4-11 cells; 24 h): −2.48
- Mean logFC, Kegg pathway p53 signaling pathway (MV4-11 cells; 24 h): −2.42
- differentially expressed genes (MV4-11 cells; 24 hours): 133
- KEGG pathways regulated (MV4-11 cells; 48 hours): No significant differences
- differentially expressed genes (MV4-11 cells; 48 hours): 226
- Median survival (MV4-11 xenograft models; HELD 5-azacytidine 3 mg/kg qd×5, alone or with venetoclax or midostaurin 100 mg/kg qd×21): 35
- Median survival (MV4-11 xenograft models; LEED 5-azacytidine 1 mg/kg qd×5×3, alone or with venetoclax or midostaurin 100 mg/kg qd×21): 35
- ATF3 expression (real-time PCR) ([2]; MV4-11, 0.3 μM 5-azacytidine, 24 or 48 hours): not sufficient to induce ATF3 expression
- ATF3 expression increase ([2]; RNAseq, MV4-11, 1 μM, 48 hours): two-fold
